Measurements: patent US20250326769A1, “HETEROAROMATIC MACROCYCLIC ETHER CHEMOTHERAPEUTIC AGENTS” (Nuvalent, Inc., priority 2022, published 2025)
pIC50: −log10 of the molar value.

What was measured:
Ba/F3 ETV6-TRKB = Ba/F3 ETV6-TRKB (Homo sapiens, UniProt Q16620); experiment: Ba/F3 cell proliferation assay, ETV6-TRKB; format: cell-based; conditions: Ba/F3 stable cells, 72 hours, CellTiter-Glo; read-out: ETV6-TRKB IC50
Source text: (§1) Genes encoding EML4-ALK v1 (variant 1), EML4-ALK v1 G1202R, EML4-ALK v1 I1171IN, EML4-ALK v1 D1203N, EML4-ALK v1 I1171N/D1203N, and ETV6-TRKB were synthesized at GeneRay, cloned into the retroviral construct pMSCV-puro (Biovector), and packaged into retroviral particles. The virus was used to infect Ba/F3 cells (RIKEN) at multiplicity of infection=1 for 1 day. Infected cells were rescued in media (RPMI-1640 with 10% fetal bovine serum and 1% streptomycin and penicillin) supplemented with mouse IL-3 (10 ng/mL) for 2 days, and stable cell lines were selected by IL-3 withdrawal and puromycin (0.8 μg/mL) for 7 days. Monoclones were selected by single-cell dilution in IL-3-free medium containing puromycin (0.8 μg/mL). Transformation of desired genes was confirmed by Sanger sequencing and western blot using the following antibodies: ALK (CST #3633) and pan-TRK (Abcam #76291).
(§2) Stable cells were plated in a 384-well plate. Test compounds were then added in a 3-fold dilution series and incubated for 72 hours. CellTiter-Glo reagent (Promega) was added. Luminescence was measured on a plate reader. Half-maximal inhibitory concentration (ICso) was calculated from percent inhibition and inhibitor concentration using four-parameter logistic regression. Compound potency can be interpreted by binning IC50 values: bin A for high potency, 0.1 nM IC50<50 nM; bin B for medium potency, 50 nM<IC50<500 nM; and bin C for low potency, IC50>500 nM. […] Exemplary data is given in Table 4 (nd is not determined).
(§3) Ba/F3 proliferation is driven by the transduced oncogenes in the same way that cancer cell proliferation in humans is driven by the expression of equivalent oncogenes.

[1] = biological target: Ba/F3 EML4-ALK v1 I1171N/D1203N (Homo sapiens (Human), UniProt Q9HC35+Q9UM73, D1203N/I1171N); experiment: Ba/F3 cell proliferation assay, EML4-ALK v1 I1171N/D1203N; format: cell-based; conditions: for pIC50: Ba/F3 stable cells, 72 hours, CellTiter-Glo; for ETV6-TRKB / EML4-ALK v1 I1171N/D1203N / Selectivity for Ba/F3 EML4-ALK v1 I1171N-D1203N IC50 over Ba/F3 ETV6-TRKB IC50: TRKB selectivity, ratio of Ba/F3 IC50 values; for Selectivity for Ba/F3 EML4-ALK v1 I1171N-D1203N IC50 over Ba/F3 ETV6-TRKB IC50: Table 6 bins
Sequence of Ba/F3 EML4-ALK v1 I1171N/D1203N (Q9UM73 other isoform, or with tags, fused parts or gaps I1171N/D1203N): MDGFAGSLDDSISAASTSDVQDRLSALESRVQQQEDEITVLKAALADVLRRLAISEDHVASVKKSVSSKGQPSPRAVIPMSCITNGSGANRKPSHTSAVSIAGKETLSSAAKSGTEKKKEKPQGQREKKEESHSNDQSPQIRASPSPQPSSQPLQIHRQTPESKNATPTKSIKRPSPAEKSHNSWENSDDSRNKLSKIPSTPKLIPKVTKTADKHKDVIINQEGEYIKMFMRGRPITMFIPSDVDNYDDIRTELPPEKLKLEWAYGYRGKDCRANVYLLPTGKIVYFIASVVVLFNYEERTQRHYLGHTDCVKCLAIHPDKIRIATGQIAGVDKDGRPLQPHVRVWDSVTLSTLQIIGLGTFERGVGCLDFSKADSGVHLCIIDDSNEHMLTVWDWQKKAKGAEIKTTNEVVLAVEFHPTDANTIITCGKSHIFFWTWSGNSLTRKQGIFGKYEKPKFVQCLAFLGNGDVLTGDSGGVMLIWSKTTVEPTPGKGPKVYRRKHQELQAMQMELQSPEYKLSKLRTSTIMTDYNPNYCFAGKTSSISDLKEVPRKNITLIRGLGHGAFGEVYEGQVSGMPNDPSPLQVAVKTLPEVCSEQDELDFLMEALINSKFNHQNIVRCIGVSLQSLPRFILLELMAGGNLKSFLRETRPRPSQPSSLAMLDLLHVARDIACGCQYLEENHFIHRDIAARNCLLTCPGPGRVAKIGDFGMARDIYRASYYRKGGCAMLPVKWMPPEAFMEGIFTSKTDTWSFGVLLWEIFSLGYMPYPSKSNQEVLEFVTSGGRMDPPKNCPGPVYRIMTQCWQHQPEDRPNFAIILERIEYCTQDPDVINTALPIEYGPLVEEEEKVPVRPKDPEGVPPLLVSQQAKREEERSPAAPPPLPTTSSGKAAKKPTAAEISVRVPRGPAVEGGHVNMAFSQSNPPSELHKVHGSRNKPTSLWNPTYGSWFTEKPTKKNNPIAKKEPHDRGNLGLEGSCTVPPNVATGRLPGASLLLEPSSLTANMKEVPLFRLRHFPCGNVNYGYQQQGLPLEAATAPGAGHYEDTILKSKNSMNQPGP
Source text: as §1, §2, §3
TRKB selectivity was calculated by dividing a compound's TRKB potency by its primary target potency (e.g., ETV6-TRKB IC50/EML4-ALK v1 IC50). Compound selectivity can be interpreted by binning ratio values: bin A for very high selectivity, ratio≥30-fold; bin B for high selectivity, ratio≥10-fold but<30; bin C for moderate selectivity, ratio≥1 but<10; and bin D for low selectivity, ratio<1. […] (nd=not determined).
Additional exemplified compounds were also tested against ALK-INDN and TRKB. The TRKB selectivity was calculated by dividing a compound's TRKB potency by its primary target potency (e.g., ETV6-TRKB IC50/EMIL4-ALK I1171N-D1203N v1 IC50). Compound selectivity can be interpreted by binning ratio values: bin AA for the selectivity with the ratio≥30-fold; bin BB for the selectivity with the ratio≥10-fold but<30; bin CC for the selectivity with the ratio≥5 but<10; bin DD for the selectivity with the ratio≥1 but<5; and bin EE for the selectivity with the ratio<1.

Sequence of Ba/F3 ETV6-TRKB (Q16620 32-822 limits assumed, stated change not applied): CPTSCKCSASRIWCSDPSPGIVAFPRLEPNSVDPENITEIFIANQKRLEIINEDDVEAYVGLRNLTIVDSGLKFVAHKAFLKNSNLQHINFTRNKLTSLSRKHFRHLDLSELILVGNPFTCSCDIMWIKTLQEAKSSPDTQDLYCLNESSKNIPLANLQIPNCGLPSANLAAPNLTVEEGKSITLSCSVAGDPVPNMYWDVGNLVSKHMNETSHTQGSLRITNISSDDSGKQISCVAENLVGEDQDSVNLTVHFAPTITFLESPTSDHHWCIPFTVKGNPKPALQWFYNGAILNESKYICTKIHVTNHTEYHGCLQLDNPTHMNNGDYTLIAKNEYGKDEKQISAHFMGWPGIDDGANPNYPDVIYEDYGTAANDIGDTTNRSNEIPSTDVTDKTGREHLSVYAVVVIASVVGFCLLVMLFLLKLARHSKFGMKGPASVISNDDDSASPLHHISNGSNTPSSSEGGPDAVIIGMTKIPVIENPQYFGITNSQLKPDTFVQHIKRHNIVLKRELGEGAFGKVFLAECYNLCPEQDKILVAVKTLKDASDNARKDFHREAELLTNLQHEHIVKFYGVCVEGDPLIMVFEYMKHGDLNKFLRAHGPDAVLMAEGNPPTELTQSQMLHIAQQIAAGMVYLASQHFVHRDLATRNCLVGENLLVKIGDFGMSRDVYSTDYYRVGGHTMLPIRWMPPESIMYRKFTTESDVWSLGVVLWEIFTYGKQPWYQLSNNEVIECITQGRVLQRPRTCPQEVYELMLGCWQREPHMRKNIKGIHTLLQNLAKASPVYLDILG

Row | pIC50 (Ba/F3 ETV6-TRKB) | pIC50 [1] | Compound | ETV6-TRKB / EML4-ALK v1 I1171N/D1203N [1] | Selectivity for Ba/F3 EML4-ALK v1 I1171N-D1203N IC50 over Ba/F3 ETV6-TRKB IC50 [1]
1 | < 6.30 | 6.30 to 7.30 | C[C@H]1Oc2cc(cnc2N)-c2c(CC3CC3)nn(C(=O)N(C)C)c2Cc2cn(C)nc2-c2c(F)cc(F)cc21 [Example 23, (19R)-22-amino-3-(cyclopropylmethyl)-14,16-difluoro-N,N,10,19-tetramethyl-20-oxa-4,5,10,11,23-pentaazapentacyclo[19.3.1.0^2,6.0^8,12.0^13,18]pentacosa-1(24),2(6),3,8,11,13,15,17,21(25),22-decaene-5-carboxamide] | A (bin A for very high selectivity, ratio≥30-fold) | –
2 | < 6.30 | 6.30 to 7.30 | Cc1nc2c(s1)C(=O)c1c(c(C#N)nn1C)-c1cnc(N)c(c1)O[C@H](C)c1cc(F)ccc1-2 [Example 74, (R)-22-amino-16-fluoro-5-methyl-10,19-dimethyl-7-oxo-20-oxa-9-thia-4,5,11,23-tetraazapentacyclo[19.3.1.0^2,^6.0^8,^12.0^13,^18]pentacosa-1(24),2(6),3,8(12),10,13,15,17,21(25),22-decaene-3-carbonitrile] | C (bin C for moderate selectivity, ratio≥1 but<10) | CC (bin CC for the selectivity with the ratio≥5 but<10)
3 | – | – | C[C@H]1Oc2cc(cnc2N)-c2c(nn(C)c2C#N)Cc2cccnc2-c2c(F)cc(F)cc21 [Example E1, reference compound] | – | BB (bin BB for the selectivity with the ratio≥10-fold but<30)
4 | < 6.30 | 7.30 to 10.00 | C[C@H]1Oc2cc(cnc2N)-c2c(C#N)nn(C)c2C(=O)c2cccnc2-c2ccc(F)cc21 [Example 25, (R)-23-amino-17-fluoro-5-methyl-20-methyl-7-oxo-21-oxa-4,5,12,24-tetraazapentacyclo[20.3.1.0^2,^6.0^8,^13.0^14,^19]hexacosa-1(25),2(6),3,8(13),9,11,14,16,18,22(26),23-undecaene-3-carbonitrile] | A (bin A for very high selectivity, ratio≥30-fold) | AA (bin AA for the selectivity with the ratio≥30-fold)
5 | < 6.30 | 6.30 to 7.30 | C[C@H]1Oc2cc(cnc2N)-c2c(C#N)nn(C)c2C(=O)c2cn(C)nc2-c2c(F)cc(F)cc21 [Example 28, (R)-22-amino-14,16-difluoro-5,10-dimethyl-19-methyl-7-oxo-20-oxa-4,5,10,11,23-pentaazapentacyclo[19.3.1.0^2,^6.0^8,^12.0^13,^18]pentacosa-1(24),2(6),3,8,11,13,15,17,21(25),22-decaene-3-carbonitrile] | A (bin A for very high selectivity, ratio≥30-fold) | –
6 | – | – | C[C@H]1Oc2cc(cnc2N)-c2c(nn(C)c2C#N)Cc2cn(C)nc2-c2c(F)cc(F)cc21 [Example E13, reference compound] | – | BB (bin BB for the selectivity with the ratio≥10-fold but<30)
7 | 7.30 to 10.00 | 7.30 to 10.00 | CCc1nn(C(=O)N(C)C)c2c1-c1cnc(N)c(c1)O[C@H](C)c1cc(F)ccc1-c1ncccc1C2 [Example 24, (R)-5-(N,N-dimethylcarbamoyl)-3-ethyl-17-fluoro-20-methyl-21-oxa-4,5,12,24-tetraazapentacyclo[20.3.1.0^2,^6.0^8,^13.0^14,^19]hexacosa-1(25),2(6),3,8(13),9,11,14,16,18,22(26),23-undecaen-23-ylamine] | C (bin C for moderate selectivity, ratio≥1 but<10) | –
8 | – | – | CCn1ncc2c1-c1cnc(N)c(c1)O[C@H](C)c1cc(F)ccc1-c1ncccc1C2 [Example E10, reference compound] | – | EE (bin EE for the selectivity with the ratio<1)
9 | – | – | Cc1nc2c(s1)Cc1c(c(C#N)nn1C)-c1cnc(N)c(c1)O[C@H](C)c1cc(F)ccc1-2 [Example E6, reference compound] | – | EE (bin EE for the selectivity with the ratio<1)
10 | < 6.30 | 6.30 to 7.30 | CC(C)N(C)C(=O)c1nn(CC2CC2)c2c1Cc1cn(C)nc1-c1ccc(F)cc1[C@@H](C)Oc1cc-2cnc1N [Example 37, N-isopropyl-N-methyl-(R)-22-amino-3-(cyclopropylmethyl)-16-fluoro-10-methyl-19-methyl-20-oxa-3,4,10,11,23-pentaazapentacyclo[19.3.1.0^2,^6.0^8,^12.0^13,^18]pentacosa-1(24),2(6),4,8,11,13,15,17,21(25),22-decaene-5-carboxamide] | – | –
11 | – | – | CC(C)n1nc2c(c1C#N)-c1cnc(N)c(c1)O[C@H](C)c1cc(F)ccc1-c1ncccc1C2 [Example E5, reference compound] | – | CC (bin CC for the selectivity with the ratio≥5 but<10)
12 | – | – | CCn1ncc2c1-c1cnc(N)c(c1)O[C@H](C)c1cc(F)ccc1-c1nn(C)cc1C2 [Example E4, reference compound] | – | EE (bin EE for the selectivity with the ratio<1)
13 | – | – | C[C@H]1Oc2cc(cnc2N)-c2c(cnn2CC2CC2)Cc2cccnc2-c2ccc(F)cc21 [Example E11, reference compound] | – | DD (bin DD for the selectivity with the ratio≥1 but<5)
14 | – | – | C[C@H]1Oc2cc(cnc2N)-c2c(nn(C)c2C#N)Cc2cccnc2-c2ccc(F)cc21 [Example E7, reference compound] | – | CC (bin CC for the selectivity with the ratio≥5 but<10)
15 | – | – | C[C@H]1Oc2cc(cnc2N)-c2c(C#N)nn(C)c2Cc2cccnc2-c2c(F)cc(F)cc21 [Example E2, reference compound] | – | DD (bin DD for the selectivity with the ratio≥1 but<5)
16 | – | – | Cc1cc2n(n1)-c1ccc(F)cc1[C@@H](C)Oc1cc(cnc1N)-c1c(C#N)nn(C)c1C2 [Example E3, reference compound] | – | EE (bin EE for the selectivity with the ratio<1)
17 | – | – | CCn1nc2c(c1C#N)-c1cnc(N)c(c1)O[C@H](C)c1cc(F)ccc1-c1ncccc1C2 [Example E12, reference compound] | – | CC (bin CC for the selectivity with the ratio≥5 but<10)
18 | – | – | C[C@H]1Oc2cc(cnc2N)-c2c(C#N)nn(C)c2Cc2cccnc2-c2ccc(F)cc21 [Example E8, reference compound] | – | DD (bin DD for the selectivity with the ratio≥1 but<5)

Row | Compound | pIC50 (Ba/F3 ETV6-TRKB) | pIC50 [1] | ETV6-TRKB / EML4-ALK v1 I1171N/D1203N [1] | Selectivity for Ba/F3 EML4-ALK v1 I1171N-D1203N IC50 over Ba/F3 ETV6-TRKB IC50 [1]
19 | C[C@H]1Oc2cc(cnc2N)-c2c(nn(C)c2C#N)Oc2cccnc2-c2ccc(F)cc21 [Example 59, (R)-23-amino-17-fluoro-4-methyl-20-methyl-7,21-dioxa-4,5,12,24-tetraazapentacyclo[20.3.1.0^2,^6.0^8,^13.0^14,^19]hexacosa-1(25),2,5,8(13),9,11,14,16,18,22(26),23-undecaene-3-carbonitrile] | 6.30 to 7.30 | 7.30 to 10.00 | B (bin B for high selectivity, ratio≥10-fold but<30) | –
20 | CC1Oc2cc(cnc2N)-c2c(c(C#N)nn2CC2CC2)Cc2cn(C)nc2-c2c(F)cc(F)cc21 (stereo not shown) [Example 70, 22-amino-3-(cyclopropylmethyl)-14,16-difluoro-10,19-dimethyl-20-oxa-3,4,10,11,23-pentaazapentacyclo[19.3.1.0^2,^6.0^8,^12.0^13,^18]pentacosa-1(24),2(6),4,8,11,13,15,17,21(25),22-decaene-5-carbonitrile] | < 6.30 | < 6.30 | C (bin C for moderate selectivity, ratio≥1 but<10) | –
21 | (7S,20R)-23-amino-17-fluoro-7-hydroxy-4-methyl-20-methyl-21-oxa-4,5,12,24-tetraazapentacyclo[20.3.1.0^2,6.0^8,13.0^14,19]hexacosa-1(25),2,5,8(13),9,11,14,16,18,22(26),23-undecaene-3-carbonitrile [Example 78] | < 6.30 | 6.30 to 7.30 | B (bin B for high selectivity, ratio≥10-fold but<30) | –
